# Experimental data: patent publication US12428394B2, “2,4-disubstituted pyrimidine derivative, preparation method therefor and use thereof” (CHENGDU ZENITAR BIOMEDICAL TECHNOLOGY CO., LTD., priority 2019, dated 2025)
# Columns and labels:
# SET-2 cells (JAK2 V617F) = assay: Inhibition of cell proliferation by MTT experiment, SET-2; assay type: cell-based; details: Homo sapiens, SET-2, 72 h, read-out: IC50 value on cell proliferation inhibition, SET-2 (V617F)
# Summary of the method: (§1)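 MTT assay in MV4-11, MOLM-13 (FLT3-ITD) and SET-2 (JAK2 V617F) cells at 10,000–15,000 cells/well in IMDM with 10% FBS. Cells are exposed to compound for 72 h at 37 °C, then to MTT for 1–3 h. IC50 is fitted from inhibition rates across concentrations.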
# JAK1 = biological target: T1, JAK1 (Homo sapiens, UniProt P23458); assay: In vitro kinase activity experiment, JAK1; assay type: biochemical
# T1 construct: purchased Eurofins
# T1 sequence (P23458 whole entry): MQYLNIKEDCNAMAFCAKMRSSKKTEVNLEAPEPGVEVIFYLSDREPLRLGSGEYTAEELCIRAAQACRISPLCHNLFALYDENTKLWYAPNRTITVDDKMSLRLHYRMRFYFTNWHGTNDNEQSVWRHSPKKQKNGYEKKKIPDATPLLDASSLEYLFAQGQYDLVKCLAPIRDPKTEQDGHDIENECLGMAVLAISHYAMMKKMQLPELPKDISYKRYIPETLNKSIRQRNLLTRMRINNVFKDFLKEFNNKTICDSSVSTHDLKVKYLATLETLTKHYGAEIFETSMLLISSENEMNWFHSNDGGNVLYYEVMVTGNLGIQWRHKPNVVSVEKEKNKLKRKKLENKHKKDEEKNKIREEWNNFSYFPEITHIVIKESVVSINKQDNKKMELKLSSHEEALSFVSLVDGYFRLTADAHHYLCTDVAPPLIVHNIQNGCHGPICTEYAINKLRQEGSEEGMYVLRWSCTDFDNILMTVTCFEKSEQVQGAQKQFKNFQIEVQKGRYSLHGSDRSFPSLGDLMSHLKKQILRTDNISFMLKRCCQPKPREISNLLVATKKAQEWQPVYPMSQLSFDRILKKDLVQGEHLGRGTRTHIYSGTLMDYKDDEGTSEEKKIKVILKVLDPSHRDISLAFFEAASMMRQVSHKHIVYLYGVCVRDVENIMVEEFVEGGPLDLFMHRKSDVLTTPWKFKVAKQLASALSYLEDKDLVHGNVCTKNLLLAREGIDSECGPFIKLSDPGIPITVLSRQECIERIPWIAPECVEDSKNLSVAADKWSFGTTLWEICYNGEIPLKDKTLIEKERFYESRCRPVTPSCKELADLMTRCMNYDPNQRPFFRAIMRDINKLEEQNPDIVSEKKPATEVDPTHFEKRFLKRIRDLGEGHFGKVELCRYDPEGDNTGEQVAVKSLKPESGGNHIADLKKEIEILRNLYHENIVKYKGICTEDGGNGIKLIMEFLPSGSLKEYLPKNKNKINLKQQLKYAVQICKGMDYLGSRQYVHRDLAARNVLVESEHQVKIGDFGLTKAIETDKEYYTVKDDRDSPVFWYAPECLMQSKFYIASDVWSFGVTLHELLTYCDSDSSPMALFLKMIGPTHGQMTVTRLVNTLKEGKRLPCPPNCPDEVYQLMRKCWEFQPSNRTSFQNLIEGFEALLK
# Procedure: Buffer solution ([…], pH 7.0, 0.2 mm EDTA, 10 mM mncl2), kinase to be tested, substrate of kinase to be tested, 10 mM magnesium acetate and γ33P-ATP solution, and compounds with different concentrations were added to a reaction tube in turn, then MgATP was added to initiate the enzyme reaction process, and incubated at room temperature for 40 min. Then, the reaction was terminated with 5 μl of […], and 10 μl of the reaction solution was titrated onto the Filtermat A membrane, washed with 75 mM phosphate solution for three times, each time for 5 min., and then washed with methanol once. Finally, the Filtermat A membrane was dried and the scintillation count was carried out.
# [1] = tested on: MV4-11 cells (FLT3-ITD+/+); assay: Inhibition of cell proliferation by MTT experiment, MV4-11; assay type: cell-based, human; details: Homo sapiens, MV4-11, 72 h, read-out: IC50 value on cell proliferation inhibition, MV4-11 FLT3-ITD+/+
# Summary of the method: as §1
# [2] = tested on: Ba/F3-EpoR-JAK2V617F cells; assay: Ba/F3-EpoR-JAK2V617F-driven malignant tumor mouse model; assay type: in vivo, Babl/c-nude mice; details: oral twice a day
# Procedure: Babl/c-nude mice (Beijing Huafukang Biotechnology Co., Ltd.) were received and acclimated to the environment until these mice were normalized in diet and activity, and the modeling began. Ba/F3-EpoR-JAK2V617F cells (State Key Laboratory of Biotherapy, Sichuan University) were routinely incubated and grew to 80% fusion degree. Then the cells were centrifuged at 1000 rpm for 3 min., collected, resuspended by PBS and counted by a cell counter; while the survival rate of the cells was calculated. Only when the proportion of living cells exceeds 90%, can the cells be used in the experiment, with the cell concentration adjusted to 1×10^7 cells/mL. After the cells were collected, the cell suspension was pre-cooled on ice. Each mouse was inoculated as per 1.0×10^6, and batch induction modeling was carried out.
# [3] = tested on: JAK2/FLT3 signaling pathway related proteins; assay: Immunoblot experiment on JAK2/FLT3 signaling pathway related proteins in MV4-11 and SET-2 cells; assay type: cell-based; details: different concentrations
# Procedure: The cells were subjected to SDS-PAGE gel electrophoresis with 8%-16% gradient gels, and constant flow membrane was carried out. The cells were blocked with 5% skim milk, and the primary antibody FLT3 (CST, 3462S), […] (CST, 3464S), STAT5 (CST, 9363S), […] (Abcam, ab32364), JAK2 (Proteintech, 02802), p-JAK2 (Abcam, ab32101), JAK1 (Santa Cruz Biotechnology, sc-136225), […] (Santa Cruz Biotechnology, sc-101716), GAPDH (Abways, AB0037), Rb (Abways, CY5661), […] (Abways, CY5260) was incubated. The next day, the cells were washed with PBS/T for three times, horseradish enzyme-labeled goat anti-mouse second antibody (Abways, AB0102) and horseradish enzyme-labeled goat anti-rabbit second antibody (Abways, AB0101) were incubated at room temperature, then the cells were washed with PBS/T for three times, and developed by the addition of the ECL chemiluminescent substrate.
compound,measurement,setting,value
"Cc1cnc(Nc2ccc(N3CCC(N(C)CCO)CC3)c(F)c2)nc1-c1cnn(C(C)C)c1 [CLJ-44, 5-methyl-N-(3-fluoro-4-(4-N-hydroxyethyl-4-N-methylaminopiperidine-1-yl)phenyl)-4-(1-isopropyl-1H-pyrazole-4-yl) pyrimidine-2-amine]",IC50,SET-2 cells (JAK2 V617F),10 to 100 nM
same,IC50,JAK1,37 nM
same,IC50,[1],1 to 10 nM
same,inhibition of spleen growth,[2]; 7.5 mg/Kg,18.74%
same,inhibition of spleen growth,[2]; 15 mg/Kg,35.67%
same,inhibition of spleen growth,[2]; 30 mg/Kg,79.79%
same,inhibition of spleen growth,[2]; 45 mg/Kg,101.08%
same,spleen weight,[2]; 45 mg/Kg,restored to the weight of a normal mouse
same,autophosphorylation of JAK2/FLT3 (immunoblot),[3],significantly inhibited the autophosphorylation of JAK2/FLT3 in a dose-dependent relationship
same,effect on JAK subtype JAK1 (immunoblot),[3],weak effect
